“And” between values parts separate entries of the source, which are not always exact repeats. Identical values can stand only once.
Tests used:
[1] = system: host versus graft reaction in rats; assay: Inhibitory effect on host versus graft (HvG) reaction in rats (popliteal lymph node weight); type: in vivo, rat; conditions: administered daily for 4 days after the injection with cells intravenously or orally, difference of right and left popliteal lymph node weights
Description: (§1) The spleen is removed from male WKAH rats at ages of 4 to 5 weeks old and is used to obtain a single cell suspension of spleen cells using RPMI 1640 medium (containing kanamycin sulfate at […], penicillin G potassium at 100 unit/ml, N-2-hydroxyethylpiperazine-N-2-ethane sulfate at 10 mM, 0.1% sodium bicarbonate, and L-glutamine at 2 mM). After the treatment of lysing of red blood cells, the cells are washed at three times and are adjusted at 5×10^7 cells/ml with physiological saline. By injection into right hind foot pad of 100 ul of spleen cell suspension, the host versus graft reaction (HvG reaction) are induced. After 4 days of the injection with cells, both of right and left popliteal lymph nodes are removed and the weight of them are measured. The test compounds are examined by difference of the lymph node weights between right and left as a indicator of HvG reaction. In addition, after 4 days of the injection with cells, blood is obtained from tail vein of the rats and the number of peripheral white blood cells are measured using automatic hemocytometer for animal (MEK-5158, Nihonkouden Co. Ltd.). Test compounds are administered daily for 4 days after the injection with cells intravenously or orally.
(§2) The value in the table represents minimum effective dose (mg/kg).

[2] = system: peripheral white blood cells; assay: Reduction of peripheral white blood cells in rats of the HvG reaction test; type: in vivo, rat; conditions: for Reduction of peripheral white blood cells, minimum effective dose: administered daily for 4 days intravenously or orally, blood from tail vein 4 days after the injection with cells; for reduction of peripheral white blood cell number relative to immunosuppressive dose (assessment in words): conclusion drawn from Table 1 (HvG test)
Description: as §1, §2

| Structure (SMILES) | melting point | Inhibitory effect on HvG reaction, minimum effective dose [1] [mg/kg] | Reduction of peripheral white blood cells, minimum effective dose [2] [mg/kg] | reduction of peripheral white blood cell number relative to immunosuppressive dose (assessment in words) [2] |
| --- | --- | --- | --- | --- |
| CCCCCCCOc1ccc(CCC(C)(CO)NC(=O)c2cc([N+](=O)[O-])cc([N+](=O)[O-])c2)cc1 (racemic) | 150 to 151 °C |  |  |  |
| CCCCCCCOc1ccc(CCC(CO)(CCC)NC(=O)c2cc([N+](=O)[O-])cc([N+](=O)[O-])c2)cc1 (racemic) [Working Example 29] | 114 to 115 °C and 115 to 116 °C |  |  |  |
| CCCCCCCOc1ccc(CCC(C)(N)CO)cc1.Cl (stereo not drawn) [Compound of experiment 1, 2-Amino-4-(4-heptyloxyphenyl)-2-methylbutanol Hydrochloride] |  | 0.03 | 0.03 | weakness of reduction of peripheral white blood cell number |
| CCCCCCCCCc1ccc(CCCC(N)(CO)CCO)cc1 (stereo not drawn) [Compound of experiment 3, 2-Amino-2-[3-(4-nonylphenyl)propyl]butane-1,4-diol] | 71 to 73 °C | 0.03 | 0.03 | weakness of reduction of peripheral white blood cell number |
| CCCCCCCOc1ccc(CCC(N)(CC)CO)cc1.Cl (stereo not drawn) [Compound of experiment 27, 2-Amino-2-ethyl-4-(4-heptyloxyphenyl)butanol Hydrochloride] | 108 to 110 °C | 0.03 | 0.03 | weakness of reduction of peripheral white blood cell number |
| CCCCCCCOc1ccc(CC[C@@](N)(CO)CCC)cc1.Cl [Compound of experiment 31, (R)-2-amino-2-[2-(4-heptyloxyphenyl)ethyl]pentanol Hydrochloride] |  | <0.3 | 3 | weakness of reduction of peripheral white blood cell number |
| CCCCCCCOc1ccc(CCC(N)(CO)C(C)C)cc1.CCCCCCCOc1ccc(CCC(N)(CO)C(C)C)cc1.Cl.Cl.O (stereo not drawn) [Compound of experiment 60, 2-Amino-2-isopropyl-4-(4-heptyloxyphenyl)butanol Hydrochloride 1/2 Hydrate] |  | 1 | 3 | weakness of reduction of peripheral white blood cell number |
| CCCCCCCOc1ccc(CCC(C)(N)CO)cc1OC (stereo not drawn) [Compound of experiment 66, 2-Amino-4-(4-heptyloxy-3-methoxyphenyl)-2-methylbutanol 1/10 Hydrate] |  | 3 | 3 | weakness of reduction of peripheral white blood cell number |
| CCCCCCCCc1ccc(CCC(N)(CO)CO)cc1.Cl [FTY720, 2-amino-2-[2-(4-octylphenyl)ethyl]propane-1,3-diol hydrochloride, reference compound] |  | 0.1 | 0.03 |  |
| CCCCCCCc1ccc(CCCC(N)(CO)CCO)cc1 (stereo not drawn) [Working Example 4, 2-Amino-2-[3-(4-heptylphenyl)propyl]butane-1,4-diol] | 68 to 71 °C |  |  |  |
| CCCCCCCCCCCCc1ccc(CCC(CCOC(C)=O)(COC(C)=O)NC(C)=O)cc1 (stereo not drawn) [Working Example 16, 3-Acetamido-3-acetoxymethyl-5-(4-dodecylphenyl)pentyl Acetate] | 75 to 77 °C |  |  |  |
| CCCCCCCOc1ccc(CCC(CO)(CCC)NC(=O)c2cc([N+](=O)[O-])cc([N+](=O)[O-])c2)cc1 (stereo not drawn) [Working Example 32] | 90 to 91 °C |  |  |  |
| CCCCCCCC(=O)c1ccc(CCC(CCOC(C)=O)(CCOC(C)=O)NC(C)=O)cc1 [Working Example 100, 3-Acetamido-5-acetoxy-3-[2-(4-octanoylphenyl)ethyl]pentyl Acetate] | 83 to 86 °C |  |  |  |
| CCCCCCCOc1ccc(CCC(CO)(CCO)NC(=O)c2cc([N+](=O)[O-])cc([N+](=O)[O-])c2)cc1 (stereo not drawn) [Working Example 115] | 78 to 79 °C |  |  |  |
| CCCCCCCOc1ccc(CCC(CO)(CCO)NC(=O)c2cc([N+](=O)[O-])cc([N+](=O)[O-])c2)cc1 (stereo not drawn) [Working Example 116] | 77 to 79 °C |  |  |  |

From patent US6372800B1, “Benzene compound and pharmaceutical use thereof” (Mitsubishi Pharma Corporation, priority 1994, dated 2002)
